Experimental data taken from patent US5168102A, “Endocrine manipulation to improve body composition of poultry” (priority 1990, dated 1992).

Tests used:
[1] = Example 2: final body weight, liver, abdominal fat and body composition; format: in vivo, broiler cockerels (Ross X Arbor Acre)
Experimental: Forty-eight 3-week-old broiler cockerels (Ross X Arbor Acre) were randomly divided into four treatment groups that contained three pens of four birds. The birds were housed in a controlled-environment room under a 20 hour light/4 hour dark cycle with feed and water provided ad libitum.
The preparation of ncGH used in this study was from the same lot used in Example 1.
Body weights and feed consumption was determined at weekly intervals although the ADG, ADFC and FTG ratio was determined over the 21 day period. […] At the conclusion of the study (6 weeks-of-age), birds were killed and the abdominal fat removed and weighed. The liver and abdominal fat were returned to the carcass which was frozen for proximate analysis as described in […]

[2] = Example 1: body composition (proximate analysis of carcass); format: in vivo, broiler cockerels (Ross X Arbor Acre strain)
Text: The purpose of this study was to determine the effect manipulating blood levels of thyroid hormones and/or growth hormone on growth performance and body composition of broiler chickens. […] Purified natural chicken growth hormone (ncGH) was obtained from the Research and Education Center, Harbor-UCLA Medical Center, Torrance, Calif. […] The premix (200 g) was then used to prepare 50 kg batches of each experimental diet according to the formula for broiler-finisher ration described in Table 1. The diet containing 0.5% PTU was prepared by mixing 250 g of PTU into 49.75 kg of the basal ration (Table 1).
Broiler cockerels (Ross X Arbor Acre strain) were raised to 3 weeks-of-age in a battery-brooder and then transferred to wire grow-out cages (4 birds/pen) held in two controlled-environment rooms (10 pens/room). Beginning at 3 weeks of age, eight birds (2 pens of 4 birds) were randomly assigned to each of 10 treatments. The chickens were provided the experimental diets and water ad libitum. […] For injection, the ncGH was reconstituted in sterile 0.025M sodium bicarbonate buffer (pH 9.8). The 10 treatments were administered for 21 days (i.e., from 3 to 6 weeks of age).
Measurement of body weight and feed consumption at weekly intervals allowed calculation of the average daily gain (ADG, g/bird/day), average daily feed consumption (ADFC, g/bird/day) and the feed-to-gain ratio (FIG, kg feed/kg gain) over the 21 day experimental period. Blood samples were taken each week (4, 5, and 6 weeks) just before (pre-injection) and 4 hours post-injection of ncGH. […] At the conclusion of the study, birds were killed and the carcasses frozen for proximate analysis. The frozen carcasses were ground in a meat grinder and aliquots of each ground carcass taken for determination of moisture, protein, fat and ash by established analytical procedures (Official Method of Analysis, Edition 13, W. Horwitz ed., Association of Official Analytical Chemist, Washington, D.C., 1980). Body composition data are presented as a percent of live weight at 6 weeks-of-age. Least squares regression analysis was used to test for significant differences (P<0.05) due treatment.

[3] = Group 1, dietary, 6 weeks-of-age, N = 8

## N[C@@H](Cc1cc(I)c(Oc2ccc(O)c(I)c2)c(I)c1)C(=O)O [T3, 3,3',5-triiodo-L-thyronine]
[1]; 1 ppm T3, with or without ncGH
  body fat content (% BW), reduction: 16%
[1]; 1 ppm T3, with or without ncGH (P<0.05)
  abdominal fat content, reduction: 28%
[1]; 1 ppm T3 and/or ncGH 100 μg/kg/day, 6 weeks-of-age, N = 12
  Body Weight (BW), final: 1.86 ± .048 kg
[1]; N = 12
  Abdominal Fat, relative weight: 1.86 ± .396 % BW
  Body composition: Ash: 2.40 ± .054 % BW
  Body composition: Fat: 13.2 ± .62 % BW
  Body composition: Protein: 17.3 ± .36 % BW
  Body composition: Water: 65.5 ± .60 % BW
  Liver, relative weight: 2.54 ± .096 % BW
[1]; in vivo
  effect on body water and ash contents: increased
[2]; [3]
  Body composition: Ash: 2.19 ± .05 % BW
  Body composition: Fat: 10.1 ± 1.2 % BW
  Body composition: Protein: 18.4 ± .22 % BW
  Body composition: Water: 68.6 ± 1.0 % BW
[2]; finishing phase
  effect on fat deposition: decreases fat deposition in chickens
[2]; vs CF group
  body fat content, reduction: 17%
  effect on body protein, water and ash: body protein and water were slightly increased
